# US7816408B2, “Calcium receptor active compounds” (NPS Pharmaceuticals, Inc., priority 2002, dated 2010)
# Assays:
# [1] = molecular target: T1, human calcium receptor (Homo sapiens, UniProt P41180); test: Activity on calcium receptors: fluo-3 fluorescence in HEK293 cells transfected with human calcium receptor gene; type: cell-based; details: HEK293 cells transfected with plasmid pHuPCaR4.0 (human calcium receptor gene), loaded with fluo-3; 1 mM CaCl2, 1 mM MgCl2
# T1 construct: expressed in transfected cells; host or cells: HEK293
# T1 sequence (P41180 20-1078): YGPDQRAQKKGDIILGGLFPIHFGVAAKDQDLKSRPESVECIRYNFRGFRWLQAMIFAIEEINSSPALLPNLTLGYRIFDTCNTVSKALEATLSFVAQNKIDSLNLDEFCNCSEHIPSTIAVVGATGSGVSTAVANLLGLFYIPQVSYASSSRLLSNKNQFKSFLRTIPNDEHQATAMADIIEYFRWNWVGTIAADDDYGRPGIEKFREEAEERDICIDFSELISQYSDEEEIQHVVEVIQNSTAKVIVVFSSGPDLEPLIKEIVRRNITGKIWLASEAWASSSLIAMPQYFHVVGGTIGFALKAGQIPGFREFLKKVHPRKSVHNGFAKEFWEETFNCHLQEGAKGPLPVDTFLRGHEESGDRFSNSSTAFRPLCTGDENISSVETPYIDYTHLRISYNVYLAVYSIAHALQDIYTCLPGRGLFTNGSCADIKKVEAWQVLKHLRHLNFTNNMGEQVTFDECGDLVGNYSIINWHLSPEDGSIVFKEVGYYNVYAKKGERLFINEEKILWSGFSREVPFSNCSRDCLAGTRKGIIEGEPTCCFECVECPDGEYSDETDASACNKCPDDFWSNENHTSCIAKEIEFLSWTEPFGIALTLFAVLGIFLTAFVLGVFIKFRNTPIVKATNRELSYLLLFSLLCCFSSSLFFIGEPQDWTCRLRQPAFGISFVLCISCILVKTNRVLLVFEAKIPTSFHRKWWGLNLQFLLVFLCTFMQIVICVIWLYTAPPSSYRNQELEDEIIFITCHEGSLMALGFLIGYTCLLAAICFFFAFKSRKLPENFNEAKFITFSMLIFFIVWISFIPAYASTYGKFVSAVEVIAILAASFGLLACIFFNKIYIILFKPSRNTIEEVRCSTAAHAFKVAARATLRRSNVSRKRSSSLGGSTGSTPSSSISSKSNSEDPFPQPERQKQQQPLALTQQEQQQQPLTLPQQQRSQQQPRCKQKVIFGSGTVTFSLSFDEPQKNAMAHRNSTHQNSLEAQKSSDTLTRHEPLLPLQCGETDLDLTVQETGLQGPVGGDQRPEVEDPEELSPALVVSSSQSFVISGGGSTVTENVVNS
# Description: The activities of the compounds of the present invention on calcium receptors were measured. The measurement was performed in accordance with the method described in Example 4 of Nemeth et al., PCT/US95/13704 (International Publication No. WO96/12697). In brief, HEK293 cells were transfected with a plasmid pHuPCaR4.0 containing a human calcium receptor gene and loaded with fluo-3. The loading was carried out by incubating the cells at 37° C. for 1 hour in Dulbecco's modified Eagle's medium which contained about 5 μM of fluo-3/AM and had been buffered with 20 mM HEPES. Next, the cells were rinsed with Hank's balanced salt solution which contained 1 mM CaCl2 and 1 mM MgCl2 and had been buffered with 20 mM HEPES. Then each test compound was added to the cells and the fluorescence was measured with the use of an excitation wavelength of 485 nm and an emission wavelength of 540 nm.
# [2] = tested on: normal male SD rats; test: Plasma Ca^2+ level of rats after single oral administration; type: in vivo; details: rat, mean of six animals, vehicle 10% cyclodextrin (** 1% sodium-CMC); for Plasma Ca^2+ (mmol/l) 1 hr: 1 hr after single oral dose 30 μmol/kg; for Plasma Ca^2+ (mmol/l) 2 hr: 2 hr after single oral dose 30 μmol/kg; for Plasma Ca^2+ (mmol/l) 4 hr: 4 hr after single oral dose 30 μmol/kg; for Plasma Ca^2+ (mmol/l) 8 hr: 8 hr after single oral dose 30 μmol/kg
# Description: The compound of the present invention was administered to rats so as to examine the effects of the compound on the plasma calcium ion level and serum PTH level. The test was performed by orally administering single dose of the compound of the invention or a control compound to normal male SD rats with six animals in each group.
# To the group 1 was administered as a control a 10% cyclodextrin aqueous solution in a dose of 2.5 ml/kg. To the group 2 was administered as a reference (R)-N-(3-(2-chlorophenyl)propyl)-1-(3-methoxyphenyl)ethylamine (KRN568) dissolved in a 10% cyclodextrin aqueous solution in a dose of 30 μmol/kg. To the group 3 was administered the compound of the present invention dissolved in a 10% cyclodextrin aqueous solution in a dose of 30 μmol/kg, provided that 1% sodium-CMC aqueous solution was used in place of 10% cyclodextrin aqueous solution for the compounds marked with ** in Table 2.
# Blood of each rat was collected from the tail tip before the administration and 30 minutes and 1, 2, 4, 8 and 24 hours thereafter (or at the time indicated in Table 2), and the plasma Ca^2+ level and serum PTH level were measured. The data of the serum PTH level were statistically processed by the multiple comparison analysis in accordance with Steel's calibration by using the group 1 as the control.
Compound,EC50 [1] [nM],further results
"CCCCCCOc1cccc(C(C)NCCSc2cc(Cl)ccc2Cl)c1 (racemic) [Compound K-2255, (±)-N-(1-(3-n-hexyloxyphenyl)ethyl)-2-(2′,5′-dichlorophenylthio)ethylamine]",9600,Plasma Ca^2+ (mmol/l) 1 hr [2]: 1.328 mmol/L; Plasma Ca^2+ (mmol/l) 2 hr [2]: 1.212 mmol/L; Plasma Ca^2+ (mmol/l) 4 hr [2]: 1.177 mmol/L; Plasma Ca^2+ (mmol/l) 8 hr [2]: 1.232 mmol/L
"CC(NCCSc1cc(Cl)ccc1Cl)c1cccc(OCc2ccc(Cl)cc2)c1 (racemic) [Compound K-2258, (±)-N-(1-(3-(4-chlorobenzyloxy)phenyl)ethyl)-2-(2′,5′-dichlorophenylthio)ethylamine]",380,Plasma Ca^2+ (mmol/l) 1 hr [2]: 1.317 mmol/L; Plasma Ca^2+ (mmol/l) 2 hr [2]: 1.227 mmol/L; Plasma Ca^2+ (mmol/l) 4 hr [2]: 1.133 mmol/L; Plasma Ca^2+ (mmol/l) 8 hr [2]: 1.207 mmol/L
COc1cccc([C@@H](C)NCCCCCSc2ccc(C(F)(F)F)cc2)c1 [Compound K-2057],410,
COc1cccc(C(C)NCCCCCCSc2ccc(C(F)(F)F)cc2)c1 (centres unmarked) [Compound K-2058],390,
COc1cccc(C(C)NCCCCCCCSc2ccc(C(F)(F)F)cc2)c1 (centres unmarked) [Compound K-2059],270,
COc1cccc(C(C)NCCCSc2cccc(Cl)c2)c1 (centres unmarked) [Compound K-2061],150,
COc1cccc([C@@H](C)NCCSc2cc(Cl)ccc2Cl)c1 [Compound K-2066],260,
CC(NCCCCCSc1ccccc1Br)c1cccc2ccccc12 (centres unmarked) [Compound K-2075],140,
"C[C@@H](NCCCCCSc1ccc(C(F)(F)F)cc1)c1cccc2ccccc12 [Compound K-2076, N-[(1R)-1-(1-naphthyl)ethyl]-N-(5-{[4-(trifluoromethyl)phenyl]thio}pentyl)amine]",6200,
COc1cccc(C(C)NCCCSc2ccc(Cl)c(Cl)c2)c1 (centres unmarked) [Compound K-2078],170,
COc1cccc(C(C)NCCCCSc2ccc(Cl)c(Cl)c2)c1 (centres unmarked) [Compound K-2079],200,
COc1cccc(C(C)NCCCCCSc2ccc(Cl)c(Cl)c2)c1 (centres unmarked) [Compound K-2080],770,
COc1cccc(C(C)NCCCCCCCSc2ccc(Cl)c(Cl)c2)c1 (centres unmarked) [Compound K-2082],2810,
COc1cccc(C(C)NCCCSc2c(Cl)cccc2Cl)c1 (centres unmarked) [Compound K-2084],120,
COc1cccc(C(C)NCCCCSc2c(Cl)cccc2Cl)c1 (centres unmarked) [Compound K-2085],130,
"C[C@@H](NCCSc1cc(Cl)ccc1Cl)c1cccc2ccccc12 [Compound K-2117, (R)-N-[1-(1′-naphthyl)ethyl]-2-(2′,5′-dichlorophenylthio)ethylamine]",43,
CC(NCCC(=O)N(Cc1ccccc1)Cc1ccccc1)c1cccc2ccccc12 (centres unmarked) [Compound K-2177],75,
"C[C@@H](NCCC(=O)N(Cc1ccc(Cl)cc1)Cc1ccc(Cl)cc1)c1cccc2ccccc12 [Compound K-2243, N1,N1-di(4-chlorobenzyl)-3-{[(1R)-1-(1-naphthyl)ethyl]amino}propanamide]",92,
"C[C@@H](NCCCCSc1ccc(C(F)(F)F)cc1)c1cccc2ccccc12 [Compound K-2246, N-[(1R)-1-(1-naphthyl)ethyl]-N-(4-{[4-(trifluoromethyl)phenyl]thio}butyl)amine]",120,
C[C@@H](NCCC(=O)N(Cc1ccccc1)Cc1ccc2ccccc2c1)c1cccc2ccccc12 [Compound K-2248],78,
CC(NCCC(=O)N(Cc1ccccc1)Cc1ccccc1Cl)c1cccc2ccccc12 (centres unmarked) [Compound K-2249],82,

Compound,EC50 [1] [nM],further results
CC(NCCC(=O)N(Cc1ccccc1)Cc1ccc(Cl)cc1Cl)c1cccc2ccccc12 (centres unmarked) [Compound K-2251],51,
C[C@@H](NCCC(=O)N(Cc1ccccc1)Cc1cccc(Cl)c1)c1cccc2ccccc12 [Compound K-2252],18,
CC(NCCC(=O)N(Cc1cccc(Cl)c1)Cc1cccc(Cl)c1)c1cccc2ccccc12 (centres unmarked) [Compound K-2253],190,
CC(NCCC(=O)N(Cc1ccccc1Cl)Cc1ccccc1Cl)c1cccc2ccccc12 (centres unmarked) [Compound K-2254],88,
CC(NCCC(=O)N(Cc1ccc(F)cc1)Cc1ccc(F)cc1)c1cccc2ccccc12 (centres unmarked) [Compound K-2256],180,
"C[C@@H](NCCC(=O)N(Cc1ccc(OC(F)(F)F)cc1)Cc1ccc(OC(F)(F)F)cc1)c1cccc2ccccc12 [Compound K-2257, N1,N1-di[4-(trifluoromethoxy)benzyl]-3-{[(1R)-1-(1-naphthyl)ethyl]amino}propanamide]",39,
"C[C@@H](NCCC(=O)N(Cc1ccc(C(F)(F)F)cc1)Cc1ccc(C(F)(F)F)cc1)c1cccc2ccccc12 [Compound K-2259, N1,N1-di[4-(trifluoromethyl)benzyl]-3-{[(1R)-1-(1-naphthyl)ethyl]amino}propanamide]",2.4,
CC(NCCC(=O)N(Cc1ccc(Cl)cc1)Cc1cccc(Cl)c1)c1cccc2ccccc12 (centres unmarked) [Compound K-2261],26,
CC(NCCSc1cccc(C(F)(F)F)c1)c1cccc2ccccc12 (centres unmarked) [Compound K-2275],270,
CC(NCCSc1cc(Cl)c(Cl)cc1Cl)c1cccc2ccccc12 (centres unmarked) [Compound K-2295],1360,
COc1ccc(CN(Cc2ccc(O)cc2)C(=O)CCNC(C)c2cccc3ccccc23)cc1 (centres unmarked) [Compound K-2312],80,
COc1ccc(SCCCCN[C@H](C)c2cccc3ccccc23)cc1 [Compound K-2314],290,
Cc1ccc(C)c(SCCCCCCCCCCCCNC(C)c2cccc3ccccc23)c1 (centres unmarked) [Compound S-16],110,
Cc1ccc(SCCCCNC(C)c2cccc3ccccc23)cc1C (centres unmarked) [Compound S-52],160,
Cc1cc(C)cc(SCCNC(C)c2cccc3ccccc23)c1 (centres unmarked) [Compound S-64],98,
Cc1cc(C)cc(SCCCCCCCN[C@H](C)c2cccc3ccccc23)c1 [Compound S-69],310,
CC(NCCCCSc1ccc(Br)cc1)c1cccc2ccccc12 (centres unmarked) [Compound S-80],100,
C[C@@H](NCCCCCCCSc1c(F)c(F)cc(F)c1F)c1cccc2ccccc12 [Compound S-165],150,
CC(NCCCCCCCSc1c(Cl)c(Cl)nc(Cl)c1Cl)c1cccc2ccccc12 (centres unmarked) [Compound S-193],66,
C[C@@H](NCCCCCCCCCCCCSc1c(F)c(F)c(C(F)(F)F)c(F)c1F)c1cccc2ccccc12 [Compound S-201],180,
CC(C)c1ccccc1SCCNC(C)c1cccc2ccccc12 (centres unmarked) [Compound S-202],150,
